# Patent US11116802B2, “Extract effective in treating drug addiction and preparation method therefor” (GUANGXI JIUFU BIOTECHNOLOGY CO., LTD, priority 2016, dated 2021)
# Tests used:
# Sprague-Dawley rats = assay: Physical dependence test: naloxone-precipitated withdrawal response after 7 days of increasing doses; type: in vivo; settings: morphine hydrochloride s.c. twice a day, 5 mg/kg to 60 mg/kg, naloxone 5 mg/kg on day 8, within 30 min
# Procedure: The morphine control group was injected subcutaneously with morphine hydrochloride twice a day. […] The Agriolima agrestis extract group was administered twice a day by oral gavage with increasing dose. The dosage was increased daily from […] to 3.0 g/kg and continuously administered until the 7th day. The negative control group was given the same volume of vegetable oil daily, and the administration time and frequency were the same as those in the Agriolima agrestis extract group. […]
# [1] = tested on: sleep time of mice with pentobarbital sodium; assay: Sleep time with pentobarbital sodium; type: in vivo, KM mice; settings: estazolam 2 mg/kg; pentobarbital sodium 50 mg/kg 45 min after administration
# Procedure: 40 KM mice (female:male 1:1) were fastened for 12 hrs, but allowed to free access to water. The mice were randomly divided into 4 groups, including a blank control group, a group with low-dose Agriolima agrestis extract (0.4 g/kg) prepared in the present invention, a group with high-dose Agriolima agrestis extract (0.8 g/kg) prepared in the present invention, and a positive control group (estazolam 2 mg/kg). Each group of mice was administered at the above dosage, and the blank control group was administered with the same volume of normal saline. After 45 minutes, each mouse was given 50 mg/kg of pentobarbital sodium, and then the sleep time of each group of mice was recorded (where the time at which the righting reflex disappeared after the administration was taken as the sleep onset time of the mice, and the duration from the time at which the righting reflex disappeared to the time at which the righting reflex returned was taken as the sleep time).
# [2] = tested on: morphine-induced excitability in mice; assay: Morphine-induced excitability (spontaneous activity recorder); type: in vivo, KM mice
# Procedure: 40 KM mice (female:male 1:1) were fastened for 12 hrs, but allowed to free access to water. The mice were randomly divided into 4 groups, including a blank control group, a group with low-dose Agriolima agrestis extract (0.4 g/kg) prepared in the present invention, a group with high-dose Agriolima agrestis extract (0.8 g/kg) prepared in the present invention, and a positive control group (estazolam 2 mg/kg). Each group of mice was placed in a YLS-1A multifunctional small animal spontaneous activity recorder. After 5 minutes of accommodation, the number of spontaneous activities of the mice before administration was measured, and the recording time was 10 min. Each group of mice was administered at the above dosage, and the blank control group was administered by oral gavage with the same volume of normal saline. […] After 15 minutes, the mice were placed in the recorder to observe and record the number of activities of the mice within 10 min.
# [3] = tested on: amphetamine-induced excitability in mice; assay: Amphetamine-induced excitability (spontaneous activity recorder); type: in vivo, KM mice
# Procedure: 40 KM mice (female:male 1:1) were fastened for 12 hrs, but allowed to free access to water. The mice were randomly divided into 4 groups, including a blank control group, a group with low-dose Agriolima agrestis extract (0.4 g/kg) prepared in the present invention, a group with high-dose Agriolima agrestis extract (0.8 g/kg) prepared in the present invention, and a positive control group (estazolam 2 mg/kg). Each group of mice was placed in a YLS-1A multifunctional small animal spontaneous activity recorder. After 5 minutes of accommodation, the number of spontaneous activities of the mice before administration was measured, and the recording time was 10 min.
# Each group of mice was administered by oral gavage at the above dosage, and the blank control group was administered with the same volume of normal saline. Each mouse was intraperitoneally injected with amphetamine (8 mg/kg) 30 min after administration. After 15 minutes, the mice were placed in the recorder to observe and record the number of activities of the mice within 10 min.
# morphine-dependent mice = assay: Jumps of morphine-dependent mice upon naloxone-precipitated withdrawal; type: in vivo, KM mice; settings: methadone 20 mg/kg, naloxone 8 mg/kg 1 hr after administration
# Procedure: (§1) 50 KM mice (female:male 1:1) were randomized into 5 groups. Group (1) was a blank control group, and the mice were subcutaneously injected with normal saline. […] Each group was given a different treatment. Group (1), that is, the blank control group, was given the same volume of normal saline. […] Group (3), that is, the positive control group, was given 20 mg/kg of methadone. Groups (4) and (5), that is, groups with low and high doses of Agriolima agrestis extract prepared in the present invention, were given Agriolima agrestis extract at a dosage of 0.4 g/kg and 0.8 g/kg respectively. Each group of mice was administered for consecutive 3 days. The mice were allowed to free access to water and food. 1 hrs after administration on the first and third days of treatment, naloxone (8 mg/kg) was given for precipitation respectively. The jump reaction of the mice in each group within 30 minutes and the changes of body weight before and after precipitation were observed.
# [4] = Difference in body weight of mice before and after naloxone precipitation; type: in vivo, KM mice; settings: morphine-dependent mice, methadone 20 mg/kg
# Procedure: as §1
# morphine-dependent rats = assay: Naloxone-precipitated withdrawal symptom scores in morphine-dependent rats; type: in vivo, Sprague-Dawley rats; settings: methadone 20 mg/kg, naloxone 5 mg/kg 45 min after administration, response within 30 min
# Procedure: (§2) 50 Sprague-Dawley rats (female:male 1:1) were randomized into 5 groups. Group (1) was a blank control group, and the rats were subcutaneously injected with normal saline. […] Each group was given a different treatment. Group (1), that is, the blank control group, was given the same volume of normal saline. […] Group (3), that is, the positive control group, was given 20 mg/kg of methadone. Groups (4) and (5), that is, groups with low and high doses of Agriolima agrestis extract prepared in the present invention, were given Agriolima agrestis extract at a dosage of 0.3 g/kg and 0.6 g/kg respectively. Each group of rats was administered for consecutive 3 days. The rats were allowed to free access to water and food. 45 minutes after administration on the first and third days of treatment, naloxone (5 mg/kg) was given for precipitation respectively. The withdrawal response of the rats within 30 minutes and the changes of body weight before and after precipitation (1 h) were observed.
# [5] = Difference in body weight of rats before and after naloxone precipitation; type: in vivo, Sprague-Dawley rats; settings: morphine-dependent rats, methadone 20 mg/kg, 1 h after precipitation
# Procedure: as §2
# [6] = baseline of estazolam 2 mg/kg group, recording time 10 min
smiles,measurement,setting,value
"CN1CC[C@]23c4c5ccc(O)c4O[C@H]2[C@@H](O)C=C[C@H]3[C@H]1C5.Cl [Morphine, morphine hydrochloride]",Withdrawal response score,Sprague-Dawley rats,76.9 ± 14.53
Clc1ccc2c(c1)C(c1ccccc1)=NCc1nncn1-2 [estazolam],Sleep time of mice,[1],66.22 ± 13.77 min
same,Activities before administration,[2]; [6],171.2 ± 38.94 counts/min
same,Activities after administration,"[2]; estazolam 2 mg/kg, morphine 10 mg/kg i.p. 30 min after administration, recorded 15 min later within 10 min",67.9 ± 40.31 counts/min
same,Activities before administration,[3]; [6],183.7 ± 32.99 counts/min
same,Activities after administration,"[3]; estazolam 2 mg/kg oral gavage, amphetamine 8 mg/kg i.p. 30 min after administration, recorded 15 min later within 10 min",83.0 ± 40.14 counts/min
CCC(=O)C(CC(C)N(C)C)(c1ccccc1)c1ccccc1 (centres unmarked) [methadone],"Jumps upon precipitated withdrawal, Day 1",morphine-dependent mice; day 1,25.1 ± 6.9 jumps/30 min
same,"Jumps upon precipitated withdrawal, Day 3",morphine-dependent mice; day 3,22.9 ± 6.81 jumps/30 min
same,"Difference in body weight (before precipitation − after precipitation), Day 1",[4]; day 1,0.22 ± 0.19 g
same,"Difference in body weight (before precipitation − after precipitation), Day 3",[4]; day 3,0.46 ± 0.23 g
same,"Naloxone-precipitated withdrawal symptom score, Day 1",morphine-dependent rats; day 1 of treatment,49.35 ± 14.41
same,"Naloxone-precipitated withdrawal symptom score, Day 3",morphine-dependent rats; day 3 of treatment,35.6 ± 18.73
same,"Difference in body weight (before precipitation − after precipitation), Day 1",[5]; day 1,15.6 ± 6.39 g
same,"Difference in body weight (before precipitation − after precipitation), Day 3",[5]; day 3,2.6 ± 2.75 g
